This is an account of results in patent US9937235B2, “Lipidated peptides as anti-obesity agents” (USTAV ORGANICKE CHEMIE A BIOCHEMIE AKADEMIE VED CR, V.V.I, priority 2012, dated 2018).

Where a SMILES comes first, the peptide text is derived from it. Where no end group is shown, it is not given here. [ ]: non-standard residue; d: D form. The star is where a group is joined. Stearoyl = CCCCCCCCCCCCCCCCCC(=O)*; Myristoyl = CCCCCCCCCCCCCC(=O)*; Lauroyl = CCCCCCCCCCCC(=O)*; Nle = CCCC[C@H](N)C(=O)O; Octanoyl = CCCCCCCC(=O)*

The subject of the assay is fasted C57BL/6 mice. In words: Food intake in fasted mice after SC administration. The settings on record: fasted C57BL/6 mice, 5 mg/kg SC, 45 min. It counts as in vivo, mouse. The method, then: Male C57BL/6 mice (An Lab, Prague 4) were bred in the accredited animal facility in the Institute of Organic Chemistry and Biochemistry, Czech Academy of Sciences, Prague, at the Institute of Molecular Genetics, Prague 4, at the temperature of 22±2° C. with access to food and water ad libitum. The day/night cycle was 12/12 hours (light turned on at 6:00 am). Animals were treated according to the Animal Protection Act (Act No. 246/1992). The males were fed standard chow diet St-1 (Mlýn Kocanda, Praha, Czech Republic) which contained 66% saccharides, 25% proteins and 9% lipids with a caloric value of 3.4 kcal/g.
The food was withdrawn 17 hours prior to injection of lipidated peptide and free access to water was maintained. The administration of saline, PrRP or lipidated analogs was performed either by SC injection at doses of 1-10 mg/kg (volume 0.2 ml/mouse), or by ICV using infusion pump (cannulae were inserted into the third brain ventricle 4 days before the experiment following the procedure of Maixnerová et al. (Maixnerová et al., 2011)). The single dose of peptide was 4 nmol/mouse (5 μl/mouse).
Fifteen minutes after the lipidated peptide administration, the mice were given pre-weighed food. The food was then weighed every 30 minutes for 5-10 hours. The administration of every dose was performed at least twice and one group of mice consisted of at least 6 mice. The results were presented as % of food intake as compared with the control group injected with saline.
Statistical evaluation was performed using program Graph-Pad Prism Software (San Diego, Calif., USA), and the one-way ANOVA with a subsequent Dunnettovým post-hoc test. The difference in food intake between mice injected with saline and mice injected with the examined peptide were considered statistically significant at P<0.05.

With `CCCCCCCCCCCC(=O)N[C@@H](CO)C(=O)N[C@@H](CCCNC(=N)N)C(=O)N[C@@H](C)C(=O)N[C@@H](Cc1c[nH]cn1)C(=O)N[C@@H](CCC(N)=O)C(=O)N[C@@H](Cc1c[nH]cn1)C(=O)N[C@@H](CO)C(=O)N[C@@H](CCCC)C(=O)N[C@@H](CCC(=O)O)C(=O)N[C@H](C(=O)N[C@@H](CCCNC(=N)N)C(=O)N[C@H](C(=O)N1CCC[C@H]1C(=O)N[C@@H](CC(=O)O)C(=O)N[C@H](C(=O)N[C@@H](CC(N)=O)C(=O)N1CCC[C@H]1C(=O)N[C@@H](C)C(=O)N[C@@H](Cc1c[nH]c2ccccc12)C(=O)N[C@@H](Cc1ccc(O)cc1)C(=O)N[C@H](C(=O)NCC(=O)N[C@@H](CCCNC(=N)N)C(=O)NCC(=O)N[C@H](C(=O)N[C@@H](CCCNC(=N)N)C(=O)N1CCC[C@H]1C(=O)N[C@H](C(=O)NCC(=O)N[C@@H](CCCNC(=N)N)C(=O)N[C@@H](Cc1ccccc1)C(N)=O)C(C)C)[C@@H](C)CC)[C@@H](C)O)[C@@H](C)CC)[C@@H](C)O)[C@@H](C)O` [Analog 17] (Lauroyl-SRAHQHS[Nle]ETRTPDINPAWYTGRGIRPVGRF-NH2), the “Food intake in mice (5 mg/kg SC) % saline-treated group (45 min)” value was 22%.

For the compound `CCCCCCCCCCCCCC(=O)N[C@@H](CO)C(=O)N[C@@H](Cc1c[nH]cn1)C(=O)N[C@@H](CCC(N)=O)C(=O)N[C@@H](CCCNC(=N)N)C(=O)N1CCC[C@H]1C(=O)N[C@@H](C)C(=O)N[C@@H](CC(=O)O)C(=O)N[C@H](C(=O)N[C@@H](Cc1c[nH]cn1)C(=O)N[C@@H](Cc1c[nH]c2ccccc12)C(=O)N[C@@H](Cc1ccc(O)cc1)C(=O)N1CCC[C@H]1C(=O)N[C@@H](CCCNC(=N)N)C(=O)NCC(=O)N[C@@H](CCCC)C(=O)N[C@@H](Cc1ccccc1)C(=O)N1CCC[C@H]1C(=O)N[C@H](C(=O)N[C@H](C(=O)NCC(=O)N[C@@H](CCCNC(=N)N)C(=O)N[C@H](C(=O)N[C@H](C(=O)N[C@@H](C)C(=O)N[C@@H](CCCNC(=N)N)C(=O)N[C@@H](CC(N)=O)C(=O)NCC(=O)N[C@@H](CCC(=O)O)C(=O)N[C@H](C(=O)N[C@@H](CO)C(=O)N[C@@H](CCCNC(=N)N)C(=O)O)C(C)C)[C@@H](C)O)[C@@H](C)CC)[C@@H](C)CC)[C@@H](C)O)[C@@H](C)O` [Analog 31] (Myristoyl-SHQRPADTHWYPRG[Nle]FPTIGRITARNGEVSR-OH; C-terminus assumed), the “Food intake in mice (5 mg/kg SC) % saline-treated group (45 min)” value is 100%.

Consider `CCCCCCCC(=O)N[C@@H](CO)C(=O)N[C@@H](CCCNC(=N)N)C(=O)N[C@@H](C)C(=O)N[C@@H](Cc1c[nH]cn1)C(=O)N[C@@H](CCC(N)=O)C(=O)N[C@@H](Cc1c[nH]cn1)C(=O)N[C@@H](CO)C(=O)N[C@@H](CCCC)C(=O)N[C@@H](CCC(=O)O)C(=O)N[C@H](C(=O)N[C@@H](CCCNC(=N)N)C(=O)N[C@H](C(=O)N1CCC[C@H]1C(=O)N[C@@H](CC(=O)O)C(=O)N[C@H](C(=O)N[C@@H](CC(N)=O)C(=O)N1CCC[C@H]1C(=O)N[C@@H](C)C(=O)N[C@@H](Cc1c[nH]c2ccccc12)C(=O)N[C@@H](Cc1ccc(O)cc1)C(=O)N[C@H](C(=O)NCC(=O)N[C@@H](CCCNC(=N)N)C(=O)NCC(=O)N[C@H](C(=O)N[C@@H](CCCNC(=N)N)C(=O)N1CCC[C@H]1C(=O)N[C@H](C(=O)NCC(=O)N[C@@H](CCCNC(=N)N)C(=O)N[C@@H](Cc1ccccc1)C(N)=O)C(C)C)[C@@H](C)CC)[C@@H](C)O)[C@@H](C)CC)[C@@H](C)O)[C@@H](C)O` [Analog 15] (Octanoyl-SRAHQHS[Nle]ETRTPDINPAWYTGRGIRPVGRF-NH2), for which the “Food intake in mice (5 mg/kg SC) % saline-treated group (45 min)” value worked out at 94%.

Regarding `CCCCCCCCCCCCCCCC(=O)N[C@@H](CO)C(=O)N[C@@H](CCCNC(=N)N)C(=O)N[C@H](C(=O)N[C@@H](Cc1c[nH]cn1)C(=O)N[C@@H](CCCNC(=N)N)C(=O)N[C@@H](Cc1c[nH]cn1)C(=O)N[C@@H](CO)C(=O)N[C@@H](CCSC)C(=O)N[C@@H](CCC(=O)O)C(=O)N[C@H](C(=O)N[C@@H](CCCNC(=N)N)C(=O)N[C@H](C(=O)N1CCC[C@H]1C(=O)N[C@@H](CC(=O)O)C(=O)N[C@H](C(=O)N[C@@H](CC(N)=O)C(=O)N1CCC[C@H]1C(=O)N[C@@H](C)C(=O)N[C@@H](Cc1c[nH]c2ccccc12)C(=O)N[C@@H](Cc1ccc(O)cc1)C(=O)N[C@@H](C)C(=O)N[C@@H](CO)C(=O)N[C@@H](CCCNC(=N)N)C(=O)NCC(=O)N[C@H](C(=O)N[C@@H](CCCNC(=N)N)C(=O)N1CCC[C@H]1C(=O)N[C@H](C(=O)NCC(=O)N[C@@H](CCCNC(=N)N)C(=O)N[C@@H](Cc1ccccc1)C(N)=O)C(C)C)[C@@H](C)CC)[C@@H](C)CC)[C@@H](C)O)[C@@H](C)CC)[C@@H](C)O` [Analog 57], the “Food intake in mice (5 mg/kg SC) % saline-treated group (45 min)” value was found to be 11%.

On to `CCCCCCCCCCCCCCCCCC(=O)N[C@@H](CO)C(=O)N[C@@H](CCCNC(=N)N)C(=O)N[C@@H](C)C(=O)N[C@@H](Cc1c[nH]cn1)C(=O)N[C@@H](CCC(N)=O)C(=O)N[C@@H](Cc1c[nH]cn1)C(=O)N[C@@H](CO)C(=O)N[C@@H](CCCC)C(=O)N[C@@H](CCC(=O)O)C(=O)N[C@H](C(=O)N[C@@H](CCCNC(=N)N)C(=O)N[C@H](C(=O)N1CCC[C@H]1C(=O)N[C@@H](CC(=O)O)C(=O)N[C@H](C(=O)N[C@@H](CC(N)=O)C(=O)N1CCC[C@H]1C(=O)N[C@@H](C)C(=O)N[C@@H](Cc1c[nH]c2ccccc12)C(=O)N[C@@H](Cc1ccc(O)cc1)C(=O)N[C@H](C(=O)NCC(=O)N[C@@H](CCCNC(=N)N)C(=O)NCC(=O)N[C@H](C(=O)N[C@@H](CCCNC(=N)N)C(=O)N1CCC[C@H]1C(=O)N[C@H](C(=O)NCC(=O)N[C@@H](CCCNC(=N)N)C(=O)N[C@@H](Cc1ccccc1)C(N)=O)C(C)C)[C@@H](C)CC)[C@@H](C)O)[C@@H](C)CC)[C@@H](C)O)[C@@H](C)O` [Analog 20] (Stearoyl-SRAHQHS[Nle]ETRTPDINPAWYTGRGIRPVGRF-NH2), for which the “Food intake in mice (5 mg/kg SC) % saline-treated group (45 min)” value worked out at 3.5%.

For the compound `CCCCCCCCCCCCCC(=O)N[C@H](Cc1ccccc1)C(=O)N[C@H](CCCNC(=N)N)C(=O)NCC(=O)N[C@H](C(=O)N1CCC[C@H]1C(=O)N[C@@H](CCCNC(=N)N)C(=O)N[C@H](C(=O)NCC(=O)N[C@@H](CCCNC(=N)N)C(=O)NCC(=O)N[C@H](C(=O)N[C@@H](Cc1ccc(O)cc1)C(=O)N[C@@H](Cc1c[nH]c2ccccc12)C(=O)N[C@@H](C)C(=O)N1CCC[C@H]1C(=O)N[C@@H](CC(N)=O)C(=O)N[C@H](C(=O)N[C@@H](CC(=O)O)C(=O)N1CCC[C@H]1C(=O)N[C@H](C(N)=O)[C@@H](C)O)[C@@H](C)CC)[C@@H](C)O)[C@@H](C)CC)C(C)C` [Analog 37] (Myristoyl-[dF][dR]GVPRIGRGTYWAPNIDPT-NH2), the “Food intake in mice (5 mg/kg SC) % saline-treated group (45 min)” value is on record as 100%.

Consider `CC[C@H](C)[C@H](NC(=O)CNC(=O)[C@H](CCCNC(=N)N)NC(=O)[C@H](CO)NC(=O)[C@H](C)NC(=O)[C@H](Cc1ccc(O)cc1)NC(=O)[C@H](Cc1c[nH]c2ccccc12)NC(=O)[C@H](C)NC(=O)[C@@H]1CCCN1C(=O)[C@H](CC(N)=O)NC(=O)[C@@H](NC(=O)[C@H](CC(=O)O)NC(=O)[C@@H]1CCCN1C(=O)[C@@H](NC(=O)[C@H](CCCNC(=N)N)NC(=O)[C@@H](NC(=O)[C@H](CCC(=O)O)NC(=O)[C@H](CCSC)NC(=O)[C@H](CO)NC(=O)[C@H](Cc1c[nH]cn1)NC(=O)[C@H](CCCNC(=N)N)NC(=O)[C@H](Cc1c[nH]cn1)NC(=O)[C@@H](NC(=O)[C@H](CCCNC(=N)N)NC(=O)[C@@H](N)CO)[C@@H](C)O)[C@@H](C)CC)[C@@H](C)O)[C@@H](C)CC)C(=O)N[C@@H](CCCNC(=N)N)C(=O)N1CCC[C@H]1C(=O)N[C@H](C(=O)NCC(=O)N[C@@H](CCCNC(=N)N)C(=O)N[C@@H](Cc1ccccc1)C(N)=O)C(C)C` [Analog 50], for which the “Food intake in mice (5 mg/kg SC) % saline-treated group (45 min)” value was 100%.

Turning to TPDINPAWYASRGIRPVGRF-NH2 [Analog 51], the “Food intake in mice (5 mg/kg SC) % saline-treated group (45 min)” value is 100%.

For `CCCCCCCCCCCCCC(=O)N[C@@H](CO)C(=O)N[C@@H](CCCNC(=N)N)C(=O)N[C@H](C(=O)N[C@@H](Cc1c[nH]cn1)C(=O)N[C@@H](CCCNC(=N)N)C(=O)N[C@@H](Cc1c[nH]cn1)C(=O)N[C@@H](CO)C(=O)N[C@@H](CCSC)C(=O)N[C@@H](CCC(=O)O)C(=O)N[C@H](C(=O)N[C@@H](CCCNC(=N)N)C(=O)N[C@H](C(=O)N1CCC[C@H]1C(=O)N[C@@H](CC(=O)O)C(=O)N[C@H](C(=O)N[C@@H](CC(N)=O)C(=O)N1CCC[C@H]1C(=O)N[C@@H](C)C(=O)N[C@@H](Cc1c[nH]c2ccccc12)C(=O)N[C@@H](Cc1ccc(O)cc1)C(=O)N[C@@H](C)C(=O)N[C@@H](CO)C(=O)N[C@@H](CCCNC(=N)N)C(=O)NCC(=O)N[C@H](C(=O)N[C@@H](CCCNC(=N)N)C(=O)N1CCC[C@H]1C(=O)N[C@H](C(=O)NCC(=O)N[C@@H](CCCNC(=N)N)C(=O)N[C@@H](Cc1ccccc1)C(N)=O)C(C)C)[C@@H](C)CC)[C@@H](C)CC)[C@@H](C)O)[C@@H](C)CC)[C@@H](C)O` [Analog 56], the “Food intake in mice (5 mg/kg SC) % saline-treated group (45 min)” value is 35%.
